According to patent US10300065B2, “Method of treating or prevention of atherothrombotic events in patients with history of myocardial infarction” (ASTRAZENECA AB, priority 2015, dated 2019):

Experiments:
[1] = system: patients with acute coronary syndrome; conditions: cited from earlier work
[2] = system: patients with a history of myocardial infarction; assay: PEGASUS-TIMI 54 analysis by time from P2Y12 inhibitor withdrawal to randomization; conditions: for All-cause mortality, HR / Cor. heart dis. death, HR / Fatal bleeding, HR / Intracranial bleeding, HR / Myocardial infarction, HR / Stroke, HR / TIMI Major Bleeding, HR / TIMI Major or Minor Bleeding, HR / All-cause mortality, (%) / Cor. heart dis. death, (%) / Fatal bleeding, (%) / Intracranial bleeding, (%) / Myocardial infarction, (%) / Stroke, (%) / TIMI Major Bleeding, (%) / TIMI Major or Minor Bleeding, (%): at 3 years
From the text: Patients in PEGASUS-TIMI 54 were further categorized by time from last P2Y12 inhibitor (days: ≤30 days, 31-360, >360).

[3] = 60 mg and 90 mg pooled, between 31 days and one year following withdrawal
[4] = 60 mg and 90 mg pooled, within 30 days following withdrawal of dual antiplatelet therapy
[5] = >1 year from P2Y12 inhibitor withdrawal, ticagrelor 60 mg bid vs. placebo
[6] = >1 year from P2Y12 inhibitor withdrawal, ticagrelor 60 mg bid
[7] = >1 year from P2Y12 inhibitor withdrawal, ticagrelor 90 mg bid vs. placebo
[8] = >1 year from P2Y12 inhibitor withdrawal, ticagrelor 90 mg bid
[9] = >1 year from P2Y12 inhibitor withdrawal, ticagrelor pooled vs. placebo
[10] = >1 year from P2Y12 inhibitor withdrawal, ticagrelor pooled
[11] = >30 days to ≤1 year from P2Y12 inhibitor withdrawal, ticagrelor 60 mg bid vs. placebo
[12] = >30 days to ≤1 year from P2Y12 inhibitor withdrawal, ticagrelor 60 mg bid
[13] = >30 days to ≤1 year from P2Y12 inhibitor withdrawal, ticagrelor 90 mg bid vs. placebo
[14] = >30 days to ≤1 year from P2Y12 inhibitor withdrawal, ticagrelor 90 mg bid
[15] = >30 days to ≤1 year from P2Y12 inhibitor withdrawal, ticagrelor pooled vs. placebo
[16] = >30 days to ≤1 year from P2Y12 inhibitor withdrawal, ticagrelor pooled
[17] = pooled doses, withdrawal within 30 days
[18] = ≤30 days from P2Y12 inhibitor withdrawal, ticagrelor 60 mg bid vs. placebo
[19] = ≤30 days from P2Y12 inhibitor withdrawal, ticagrelor 60 mg bid
[20] = ≤30 days from P2Y12 inhibitor withdrawal, ticagrelor 90 mg bid vs. placebo
[21] = ≤30 days from P2Y12 inhibitor withdrawal, ticagrelor 90 mg bid
[22] = ≤30 days from P2Y12 inhibitor withdrawal, ticagrelor pooled vs. placebo
[23] = ≤30 days from P2Y12 inhibitor withdrawal, ticagrelor pooled

## CCCSc1nc(N[C@@H]2C[C@H]2c2ccc(F)c(F)c2)c2nnn([C@@H]3C[C@H](OCCO)[C@@H](O)[C@H]3O)c2n1 [Ticagrelor, (1S,2S,3R,5S)-3-[7-{[(1R,2S)-2-(3,4-difluorophenyl)cyclopropyl]amino}-5-(propylthio)-3H-[1,2,3]-triazolo[4,5-d]pyrimidin-3-yl]-5-(2-hydroxyethoxy)cyclopentane-1,2-diol]
[1]; 90 mg twice daily added to aspirin for up to 1 year, acute coronary syndrome
  major adverse cardiovascular events including cardiovascular death compared with clopidogrel 75 mg once daily: reduced
[1]; PLATO substudy, 199 subjects, after one month or after at least 6 months of chronic treatment
  effect on pulmonary function: no indication of an adverse effect on pulmonary function
[1]; PLATO, each treatment group
  reports of gout: 0.6%
[1]; PLATO, ticagrelor 90 mg bid
  serum uric acid level increase from baseline: approximately 0.6 mg/dL
[2]; [3]
  absolute reduction in the risk of a subsequent atherothrombotic event: 1.1%
  reduction in the risk of developing a subsequent atherothrombotic event: 14%
[2]; [4]
  absolute reduction in the risk of a subsequent atherothrombotic event: 2.2%
  reduction in the risk of developing a subsequent atherothrombotic event: 27%
[2]; [5]
  All-cause mortality, HR: 1.34
  Cor. heart dis. death, HR: 0.96
  Fatal bleeding, HR: 1.11
  Intracranial bleeding, HR: 1.56
  Myocardial infarction, HR: 0.95
  Stroke, HR: 0.95
  TIMI Major Bleeding, HR: 2.1
  TIMI Major or Minor Bleeding, HR: 2.11
[2]; [6]
  All-cause mortality, (%): (4.6) %
  Cor. heart dis. death, (%): (1.2) %
  Fatal bleeding, (%): (0.1) %
  Intracranial bleeding, (%): (0.6) %
  Myocardial infarction, (%): (4.1) %
  Stroke, (%): (1.2) %
  TIMI Major Bleeding, (%): (1.9) %
  TIMI Major or Minor Bleeding, (%): (2.3) %
[2]; [7]
  All-cause mortality, HR: 1.31
  Cor. heart dis. death, HR: 0.77
  Intracranial bleeding, HR: 1.42
  Myocardial infarction, HR: 0.84
  Stroke, HR: 1.13
  TIMI Major Bleeding, HR: 3.28
  TIMI Major or Minor Bleeding, HR: 3.82
[2]; [8]
  All-cause mortality, (%): (4.7) %
  Cor. heart dis. death, (%): (1.1) %
  Fatal bleeding, (%): (0) %
  Intracranial bleeding, (%): (0.5) %
  Myocardial infarction, (%): (3.6) %
  Stroke, (%): (1.5) %
  TIMI Major Bleeding, (%): (3) %
  TIMI Major or Minor Bleeding, (%): (4.4) %
[2]; [9]
  All-cause mortality, HR: 1.32
  Cor. heart dis. death, HR: 0.86
  Fatal bleeding, HR: 0.57
  Intracranial bleeding, HR: 1.48
  Myocardial infarction, HR: 0.9
  Stroke, HR: 1.04
  TIMI Major Bleeding, HR: 2.67
  TIMI Major or Minor Bleeding, HR: 2.94
[2]; [10]
  All-cause mortality, (%): (4.6) %
  Cor. heart dis. death, (%): (1.2) %
  Fatal bleeding, (%): (0) %
  Intracranial bleeding, (%): (0.6) %
  Myocardial infarction, (%): (3.9) %
  Stroke, (%): (1.3) %
  TIMI Major Bleeding, (%): (2.4) %
  TIMI Major or Minor Bleeding, (%): (3.5) %
[2]; [11]
  All-cause mortality, HR: 0.76
  Cor. heart dis. death, HR: 0.70
  Fatal bleeding, HR: 0.87
  Intracranial bleeding, HR: 1.97
  Myocardial infarction, HR: 0.88
  Stroke, HR: 0.82
  TIMI Major Bleeding, HR: 2.94
  TIMI Major or Minor Bleeding, HR: 3.07
[2]; [12]
  All-cause mortality, (%): (3.8) %
  Cor. heart dis. death, (%): (1.4) %
  Fatal bleeding, (%): (0.3) %
  Intracranial bleeding, (%): (0.6) %
  Myocardial infarction, (%): (4.6) %
  Stroke, (%): (1.4) %
  TIMI Major Bleeding, (%): (2.7) %
  TIMI Major or Minor Bleeding, (%): (3.8) %
[2]; [13]
  All-cause mortality, HR: 1.01
  Cor. heart dis. death, HR: 0.71
  Fatal bleeding, HR: 0.24
  Intracranial bleeding, HR: 1.63
  Myocardial infarction, HR: 0.82
  Stroke, HR: 1.02
  TIMI Major Bleeding, HR: 2.85
  TIMI Major or Minor Bleeding, HR: 3.17
[2]; [14]
  All-cause mortality, (%): (4.8) %
  Cor. heart dis. death, (%): (1.4) %
  Fatal bleeding, (%): (0.1) %
  Intracranial bleeding, (%): (0.5) %
  Myocardial infarction, (%): (4.2) %
  Stroke, (%): (1.9) %
  TIMI Major Bleeding, (%): (2.8) %
  TIMI Major or Minor Bleeding, (%): (3.9) %
[2]; [15]
  All-cause mortality, HR: 0.88
  Cor. heart dis. death, HR: 0.70
  Fatal bleeding, HR: 0.57
  Intracranial bleeding, HR: 1.81
  Myocardial infarction, HR: 0.85
  Stroke, HR: 0.91
  TIMI Major Bleeding, HR: 2.89
  TIMI Major or Minor Bleeding, HR: 3.11
[2]; [16]
  All-cause mortality, (%): (4.3) %
  Cor. heart dis. death, (%): (1.4) %
  Fatal bleeding, (%): (0.2) %
  Intracranial bleeding, (%): (0.5) %
  Myocardial infarction, (%): (4.4) %
  Stroke, (%): (1.7) %
  TIMI Major Bleeding, (%): (2.7) %
  TIMI Major or Minor Bleeding, (%): (3.8) %
[2]; doses pooled, withdrawal ≤30 days, beyond 90 days
  HR for cardiovascular death, myocardial infarction, or stroke vs. placebo: 0.76
[2]; doses pooled, withdrawal ≤30 days, first 90 days after randomization
  HR for cardiovascular death, myocardial infarction, or stroke vs. placebo: 0.54
[2]; more than one year after withdrawal of previous dual antiplatelet therapy
  reduction in the risk of developing a subsequent atherothrombotic event: did not experience a reduction
[2]; pooled doses, time from last P2Y12 inhibitor 31-360 days
  HR for cardiovascular death, myocardial infarction, or stroke vs. placebo: 0.86
[2]; pooled doses, time from last P2Y12 inhibitor >360 days
  HR for cardiovascular death, myocardial infarction, or stroke vs. placebo: 1.01
[2]; pooled doses, time from last P2Y12 inhibitor ≤30 days
  HR for cardiovascular death, myocardial infarction, or stroke vs. placebo: 0.73
[2]; [17]
  HR for cardiovascular death vs. placebo: 0.78
  HR for myocardial infarction vs. placebo: 0.72
  HR for stroke vs. placebo: 0.64
[2]; pooled doses, ≤30 days of stopping, qualifying MI <2 years prior to randomization
  HR for cardiovascular death, myocardial infarction, or stroke vs. placebo: 0.73
[2]; pooled doses, ≤30 days of stopping, qualifying MI ≥2 years prior to randomization
  HR for cardiovascular death, myocardial infarction, or stroke vs. placebo: 0.71
[2]; [18]
  All-cause mortality, HR: 0.80
  Cor. heart dis. death, HR: 0.78
  Fatal bleeding, HR: 2.15
  Intracranial bleeding, HR: 1.53
  Myocardial infarction, HR: 0.78
  Stroke, HR: 0.64
  TIMI Major Bleeding, HR: 3.3
  TIMI Major or Minor Bleeding, HR: 3.43
[2]; [19]
  All-cause mortality, (%): (4.3) %
  Cor. heart dis. death, (%): (1.5) %
  Fatal bleeding, (%): (0.4) %
  Intracranial bleeding, (%): (0.8) %
  Myocardial infarction, (%): (5.2) %
  Stroke, (%): (1.5) %
  TIMI Major Bleeding, (%): (2.6) %
  TIMI Major or Minor Bleeding, (%): (4.1) %
[2]; [20]
  All-cause mortality, HR: 1.02
  Cor. heart dis. death, HR: 0.67
  Fatal bleeding, HR: 2.25
  Intracranial bleeding, HR: 2.07
  Myocardial infarction, HR: 0.67
  Stroke, HR: 0.64
  TIMI Major Bleeding, HR: 3.44
  TIMI Major or Minor Bleeding, HR: 3.57
[2]; [21]
  All-cause mortality, (%): (5.1) %
  Cor. heart dis. death, (%): (1.1) %
  Fatal bleeding, (%): (0.2) %
  Intracranial bleeding, (%): (0.7) %
  Myocardial infarction, (%): (4.6) %
  Stroke, (%): (1.3) %
  TIMI Major Bleeding, (%): (2.4) %
  TIMI Major or Minor Bleeding, (%): (3.8) %
[2]; [22]
  All-cause mortality, HR: 0.91
  Cor. heart dis. death, HR: 0.72
  Fatal bleeding, HR: 2.2
  Intracranial bleeding, HR: 1.79
  Myocardial infarction, HR: 0.72
  Stroke, HR: 0.64
  TIMI Major Bleeding, HR: 3.36
  TIMI Major or Minor Bleeding, HR: 3.50
[2]; [23]
  All-cause mortality, (%): (4.7) %
  Cor. heart dis. death, (%): (1.3) %
  Fatal bleeding, (%): (0.3) %
  Intracranial bleeding, (%): (0.7) %
  Myocardial infarction, (%): (4.9) %
  Stroke, (%): (1.4) %
  TIMI Major Bleeding, (%): (2.5) %
  TIMI Major or Minor Bleeding, (%): (4.0%
